Measurements reported in ChEMBL document CHEMBL3507680, “University of Dundee, Gates Library screen for HepG2 cell viability”.

Assay: Human HepG2 cell viability assay in 384 well format
Assay type: toxicity, cell-based
Design: dose 125 nL, time 70.5 hour; concentration not given beside the values
Conditions: HepG2 cells, read-out: Inhibition

Row | Structure (SMILES) | cytotoxicity at 70.5 h
1 | CCOc1nnc(CN2CCC(c3cc4ccccc4[nH]3)CC2)s1 | -5.08%
2 | CC(c1ccco1)N(C(=O)CNc1ccc(C#N)cc1)C1CC1 (stereo not given) | 4.38%
3 | CC(C1CC1)N(C(=O)CNc1ccc(C#N)cc1)C1CC1 (stereo not given) | -6.5%
4 | c1nc2c(c(N3CCOC(Cn4cncn4)C3)n1)CCC2 (stereo not given) | -7.61%
5 | c1nc2c(c(N3CCCC(Cn4cncn4)C3)n1)CCC2 (stereo not given) | -7.36%
6 | O=C(NCCNC(=O)C1CC1)c1sccc1Br | -6.03%
7 | CC(C)COCCC(=O)Nc1cc(-n2nnnc2C2CC2)ccc1F | -8.14%
8 | CCOc1ccccc1CCNC(=O)NCC(O)c1ccsc1 (stereo not given) | -0.583%
9 | CC(C)C(C#N)N1CCN(C(=O)c2cc(-c3ccccn3)no2)CC1 (stereo not given) | 3.13%
10 | CCCS(=O)(=O)NC(=O)c1ccc(-n2nc(C)cc2C)cc1 | -6.42%
11 | CN1CCOC(C(=O)Nc2nc(-c3ccccc3F)n[nH]2)C1 (stereo not given) | -6.97%
12 | c1cnn(CC2CN(c3ncnc4c3CCC4)CCO2)c1 (stereo not given) | -9.89%
13 | CC(NC(=O)c1ccoc1)C(=O)N(C)Cc1ccc(O)cc1 (stereo not given) | 3.58%
14 | Cc1cnn(C2CN(C(C)c3nc(-c4ccccc4)no3)C2)c1 (stereo not given) | -8.84%
15 | COc1ccnc(N(C)Cc2csc(C)n2)n1 | -6.22%
16 | CCC1CCCCCN1C(=O)c1coc(S(=O)(=O)N(C)C)c1 (stereo not given) | -12.3%
17 | N#Cc1c(CN2CCCCC2Cn2cncn2)cn2ccccc12 (stereo not given) | 5.14%
18 | COc1ccc(COCC(O)CSc2ccc(NC(C)=O)cc2)cc1 (stereo not given) | -10.5%
19 | CC(=O)Nc1ccc(SCC(O)COCc2ccco2)cc1 (stereo not given) | -12%
20 | O=C(NCc1ccnc(OCC(F)(F)F)c1)NCC1CCCO1 (stereo not given) | 0.67%

Row | Structure (SMILES) | cytotoxicity at 70.5 h
21 | CC(CN1CCOCC1)NC(=O)Nc1cccnc1-n1cccn1 (stereo not given) | -14%
22 | O=C(NCCN1CCCCCC1=O)Nc1cccnc1-n1cccn1 | 23.5%
23 | CC(=O)NCCNC(=O)c1nc(C2CC2)n(-c2ccccc2Cl)n1 | -13.6%
24 | CNC(=O)Cn1ccc2ccc(NC(=O)C(C)CSC)cc21 (stereo not given) | -5.03%
25 | Cn1cc(CCC(=O)NCc2ccccc2OC(C)(C)C)cn1 | 2.39%
26 | Cc1nc(CCCC(=O)Nc2cccc(N3CCNC3=O)c2)cs1 | 0.608%
27 | O=C(NCc1ccnc(OCC(F)(F)F)c1)NCC1COCCO1 (stereo not given) | -6.7%
28 | COc1ccc(-n2cc(CNC(=O)c3ccc[nH]3)nn2)cc1 | -2.18%
29 | O=S(=O)(c1cncc(F)c1)N1CCSC2(CCCCC2)C1 | -10.2%
30 | Cc1ccc(C2CN(CCCC#N)CCO2)c(C)c1 (stereo not given) | -2.64%
31 | Cn1cc(CNCC(c2ccc(Cl)cc2)n2cccn2)cn1 (stereo not given) | -5.62%
32 | Cc1noc(CN(CCO)Cc2cc(Br)ccc2F)n1 | -1.67%
33 | N#Cc1c(CN2CCCC2Cn2cccn2)cn2ccccc12 (stereo not given) | 18.8%
34 | CC(C)(C)c1nc(CN(CCO)Cc2cc(Br)ccc2F)no1 | -3.27%
35 | COCCN1CC(=O)N(C(C)C)C(C)(C)C1 | 0.521%
36 | Cc1ccc(C2CN(CCCS(=O)(=O)C(C)C)CCO2)c(C)c1 (stereo not given) | -2.16%
37 | Cc1noc(CNC(=O)NCC2(C)CCCc3ccccc32)n1 (stereo not given) | -8.6%
38 | Nc1cccnc1N1CCC(O)CC1 | -1.82%
39 | COc1ccc(Cl)cc1CN1CC(n2cccn2)C1 | -4.9%
40 | CC(SCCC(=O)NC(N)=O)c1c(F)cccc1F (stereo not given) | -10.5%

Row | Structure (SMILES) | cytotoxicity at 70.5 h
41 | Cc1noc(C)c1S(=O)(=O)N(CC(N)=O)CC(C)C | -20.2%
42 | CC(=O)N1CCCC1C(=O)N1CCC(=Cc2cccc(F)c2)CC1 (stereo not given) | -14.8%
43 | N#CCCN(Cc1ccco1)C(=O)CCCNC(=O)c1ccccc1 | -15.9%
44 | Cc1cccc(C(=O)N2CCN(C)CC2)c1NC(=O)c1ccncc1 | 17.6%
45 | O=C(CN1CCc2cncnc2C1)NC(C1CC1)C1CC1 | -12.3%
46 | Cc1cccc(C(=O)N2CCSCC2)c1NC(=O)c1cccnc1 | -7.35%
47 | CCC(C)(C)NC(=O)COC(=O)c1cc(C)ccc1NC(=O)N(C)C | -7.98%
48 | COC(=O)CN(C(=O)c1ccco1)c1cccc(F)c1 | 16.3%
49 | CN(C(=O)c1ccc(NC(=O)c2cc[nH]n2)cc1)C1CCCCC1 | -9.38%
50 | Cc1cccc(C(=O)N2CCSCC2)c1NC(=O)c1ccsc1 | -8.36%
51 | Cn1ccc(C(=O)Nc2nc(-c3ccc(Cl)cc3)n[nH]2)cc1=O | 24.6%
52 | Cc1noc(CCCC(=O)NCC(c2ccco2)N2CCCC2)n1 (stereo not given) | -14.9%
53 | CCc1nnsc1C(=O)NCC1CN(CC(C)C)CCO1 (stereo not given) | 22.5%
54 | Cc1ccc(C(NC(=O)CN2CCc3cncnc3C2)C2CC2)cc1 (stereo not given) | -13.1%
55 | CSCC(C)N(C)C(=O)CN1CCN(c2ccccn2)CC1 (stereo not given) | 17.8%
56 | O=C(CN1CCc2cncnc2C1)NC(c1ccccc1)C1CC1 (stereo not given) | -2.84%
57 | CC(=O)N1CCCC(C(=O)N2CCC(=Cc3cccc(F)c3)CC2)C1 (stereo not given) | -9.9%
58 | CCOc1ccccc1C(N)CC(C)C (stereo not given) | -0.686%
59 | CC(c1ccccn1)N(C)C(=O)CN1CCN(c2ccccn2)CC1 (stereo not given) | -11.5%
60 | COc1ccc(CNC(=O)C(NC(=O)Cc2ccccc2)C(C)C)cn1 (stereo not given) | 30.6%
